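Values below derive from 48-hour exposures of cells grown in 96-well plates, with endpoints linearly interpolated between the two concentrations bracketing the appropriate inhibition level. At the TGI there is no net growth.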
Assays:
Experiment in all cases: growth of human tumour cells (NCI), 48 h
[1] = system: CAKI-1 renal
[2] = system: COLO 205 colon
[3] = system: HCC-2998 colon
[4] = system: HCT-116 colon
[5] = system: M14 melanoma
[6] = system: MDA-MB-435
[7] = system: NCI-H226 lung
[8] = system: NCI-H23 lung
[9] = system: NCI/ADR-RES ovarian
[10] = system: OVCAR-3 ovarian
[11] = system: PC-3 prostate
[12] = system: RXF 393 renal
[13] = system: SF-295 CNS
[14] = system: SF-539 CNS
[15] = system: SK-MEL-2 melanoma
[16] = system: SK-MEL-28 melanoma
[17] = system: SNB-19 CNS
[18] = system: SR leukemia
[19] = system: T-47D breast
[20] = system: HL-60(TB) leukemia

Compound	TGI [1]	TGI [2]	TGI [3]	TGI [4]	TGI [5]	TGI [6]	TGI [7]	TGI [8]	TGI [9]	TGI [10]	TGI [11]	TGI [12]	TGI [13]	TGI [14]	TGI [15]	TGI [16]	TGI [17]	TGI [18]	TGI [19]	TGI [20]
CC(C)=CCC/C(C)=C/CC/C(C)=C/CC(CO)N(C)CC/C=C(\C)CCC=C(C)C (stereo not given)	19.2 µM	6.85 µM	10.8 µM	6.46 µM	3.75 µM	13.2 µM	28.4 µM	21.8 µM	16.4 µM	27.8 µM	20.2 µM	12.8 µM	19.9 µM	9.76 µM	28.6 µM	14.4 µM	21.5 µM	4.8 µM	10.7 µM	
CCSC1=N/C(=C\c2ccc(N(C)C)cc2)C(Cl)=N1	> 100 µM	> 100 µM	> 100 µM	> 100 µM	> 100 µM	> 100 µM	> 100 µM	> 100 µM	> 100 µM	> 100 µM	> 100 µM	> 100 µM	> 100 µM		> 100 µM	> 100 µM	> 100 µM		> 100 µM	> 100 µM
CCOC(=O)/C=C(/C(=O)OCC)n1cnc2c(=O)[nH]c(NC(C)=O)nc21	> 100 µM	> 100 µM	> 100 µM	> 100 µM	> 100 µM	> 100 µM	> 100 µM	> 100 µM	> 100 µM	> 100 µM	> 100 µM		> 100 µM	> 100 µM	> 100 µM	> 100 µM	> 100 µM	> 100 µM	> 100 µM	> 100 µM
O=C(Cn1c(-c2ccccc2)cc2ccccc21)N1CCCC1		> 100 µM		> 100 µM	> 100 µM		> 100 µM		> 100 µM	> 100 µM	> 100 µM		> 100 µM		> 100 µM		> 100 µM	> 100 µM	> 100 µM	
COC(=O)NC(C(F)(F)F)(C(F)(F)F)P1(=O)OCCCO1		69.9 µM		62 µM	> 100 µM	46.1 µM	98.7 µM	50.9 µM	> 100 µM	> 100 µM	> 100 µM	15 µM	55.3 µM	43 µM		> 100 µM	78.7 µM	69.5 µM	84.3 µM	51.1 µM
CSc1ccsc1-c1sc(-c2cc(SC)c(-c3sc(-c4cc(SC)c(-c5sccc5SC)s4)cc3SC)s2)cc1SC	34 µM	> 100 µM	> 100 µM	> 100 µM	> 100 µM	56.5 µM		> 100 µM	> 100 µM	> 100 µM	> 100 µM	> 100 µM	> 100 µM	> 100 µM	> 100 µM	> 100 µM	> 100 µM		82.8 µM	8.9 µM
COc1ccc(-c2cc3ccccc3oc2=O)cc1OC	> 100 µM	> 100 µM		> 100 µM	> 100 µM	> 100 µM	> 100 µM	> 100 µM	> 100 µM	> 100 µM		> 100 µM	> 100 µM	> 100 µM	> 100 µM		> 100 µM	> 100 µM	> 100 µM	> 100 µM
Cn1c2c(c3ccccc31)CCN1C(=O)CN(C(=O)C3CCCCC3)CC21 (stereo not given)		> 100 µM	> 100 µM	> 100 µM	> 100 µM	> 100 µM	> 100 µM	> 100 µM	> 100 µM	> 100 µM	> 100 µM	> 100 µM	> 100 µM	> 100 µM	> 100 µM	> 100 µM	> 100 µM	> 100 µM	> 100 µM	> 100 µM
CCOC(=O)c1sc2c(c1OC(=O)c1ccc(OC)cc1)c(=O)n(-c1ccccc1)c(=S)n2-c1ccccc1	> 100 µM	> 100 µM	38 µM	> 100 µM	> 100 µM	> 100 µM	73 µM	> 100 µM	72.2 µM	> 100 µM	> 100 µM	> 100 µM	> 100 µM	> 100 µM		> 100 µM	> 100 µM	93.2 µM	> 100 µM	> 100 µM
C=CCN(C(=O)CNC(=O)C(F)(F)F)c1cc(OCc2ccccc2)c2c(c1)c(C)cn2S(=O)(=O)c1ccccc1	> 100 µM	> 100 µM	> 100 µM	> 100 µM	> 100 µM	> 100 µM	> 100 µM	> 100 µM	> 100 µM	> 100 µM	> 100 µM	> 100 µM	> 100 µM	> 100 µM	> 100 µM	> 100 µM	> 100 µM		> 100 µM	
CC(C)(C)OC/C=C(/CO)[C@@H]1C=C[C@H](O)C1	> 100 µM	> 100 µM	> 100 µM	> 100 µM	> 100 µM	> 100 µM	> 100 µM	> 100 µM	> 100 µM	> 100 µM	> 100 µM		> 100 µM	> 100 µM	> 100 µM	> 100 µM	> 100 µM		> 100 µM	
Nc1ccccc1N=Cc1cc2cc([N+](=O)[O-])ccc2s1	> 100 µM	45.5 µM	54.6 µM	> 100 µM	82.8 µM	> 100 µM		> 100 µM	> 100 µM	30.1 µM	30.9 µM	28.7 µM	> 100 µM	27.4 µM	37.3 µM	57.8 µM	46.6 µM	> 100 µM	20.8 µM	32 µM
CCOC(=O)[C@H](C)OC(=O)[C@@](C)(NC(=O)c1ccccc1C(=O)OC)[C@@H]1NC=C(C(=O)OC)CS1	> 100 µM	> 100 µM	> 100 µM	> 100 µM	> 100 µM	85.6 µM	> 100 µM	> 100 µM	> 100 µM	> 100 µM	> 100 µM	> 100 µM	> 100 µM		> 100 µM	> 100 µM	> 100 µM	46.5 µM	> 100 µM	

Reference: PubChem BioAssay (NCI)
